Source: paper PMC7244523, “A Cell-based Screen in Actinomyces oris to Identify Sortase Inhibitors” (Scientific Reports, 2020)
pIC50: −log10 of the molar value. Converted amounts (≈) assume the structure as drawn.

Tests used:
A. oris ΔgspA = experiment: Cell fractionation and immunoblot with α-FimA (type 2 pilus); format: cell-based, Actinomyces oris; conditions: 10 µM, 3 hours, ΔgspA strain, versus control
Procedure: To understand the physiological effects that these molecules have on the display of pili and surface proteins on the surface of A. oris, we grew cells with 10 µM of each hit molecule and assessed sortase activity by western blot and electron microscopy as previously reported. To avoid a confounding problem that inhibiting ^AoSrtA causes cell arrest, we performed the experiments in a mutant devoid of gspA; the aforementioned genetic suppressor of sortase lethality.
(§1) Cell fractionation and Western blotting were followed according to a published protocol. Briefly, the cultures of A. oris strains grown in BHI at 37 °C until OD600 of 0.25 were aliquoted, and bacterial aliquots were treated with 10 µM of individual sortase inhibitors for 3 hours. Bacterial cultures were then normalized to equal OD600, and cells were fractionated into culture medium (S), cell wall (W), and protoplast fractions. Isolated fractions were subjected to protein precipitation by 7.5% trichloroacetic acid, followed by washing with cold acetone, except for the protoplast fractions. Protein samples were dissolved in hot sodium dodecyl sulfate (SDS)-containing sample buffer, separated by 3–12% Tris-glycine gradient gels, and subjected to immunoblotting with specific antisera (α-FimA, 1:10,000 dilution; α-GspA, α-MdbA, α-SrtC2 and α-SrtA, 1:4000 dilution), followed by chemo-luminescence detection.

A. oris ΔgspAΔsrtA = experiment: Minimum inhibitory concentration, ΔgspA/ΔsrtA strain; format: cell-based, Actinomyces oris; conditions: BHI, 96-well plates, 18 hours
Procedure: (§2) Two validation assays were performed for each hit molecule that measured: (i) the minimum inhibitory concentration (MIC) required to prevent growth of the MG-1 and ΔsrtA/ΔgspA strains, and (ii) their in vitro inhibitory activity against the enzymatic activity of the A. oris and S. aureus sortase enzymes. Initially, the selective growth effect originally observed in the HTS that used 384-well plates was more rigorously defined by determining each molecule’s MIC value for the MG-1 and ΔsrtA/ΔgspA strains. Cells were cultured in 100 µL media containing 2-fold dilutions of each small molecule between 320 µM and 0.039 µM (approximately 134 µg mL^−1 to […]).
(§3) Minimum inhibitory concentration (MIC) values were determined for molecules 1–6 according to the Clinical Laboratory Standard Institutes’ (CLSI) Methods for Dilution Antimicrobial Susceptibility Tests for Bacteria that Grow Aerobically, Approved standards-ninth edition; M07-A9 Vol. 32 No. 2 with the following alterations. Overnight cultures of MG-1 and ΔgspAΔsrtA were diluted to OD600 values of 0.01 before being added to BHI containing the appropriate molecule in 96-well plates. Mueller-Hinton broth was not usable because A. oris is a fastidious bacterium. Plates were sealed with Breatheasy seals and incubated for 18 hours, as A. oris has a doubling time of 2 hours. Plate seals were removed and OD600 values measured. Each plate was run with a positive control (cells, media, and Penicillin G), negative control (media and cells only), and contamination control (media only).

A. oris MG-1 = experiment: Minimum inhibitory concentration, MG-1 strain; format: cell-based; conditions: Actinomyces oris, MG1; BHI, 96-well plates, 18 hours
Procedure: as §2, §3

A. oris ΔlcpA = experiment: Cell fractionation and immunoblot with α-GspA (cell wall anchoring of GspA); format: cell-based, Actinomyces oris; conditions: 10 µM, ΔlcpA strain; for GspA polymers (immunoblot α-GspA): 3 hours; for GspA display / cell wall associated GspA: Fig. 4B
Procedure: (§4) To examine if these molecules inhibit cell wall anchoring of surface proteins (e.g. GspA), we similarly treated cells devoid of lcpA, i.e. ΔlcpA, another suppressor of srtA[46]. […] To corroborate these observations, we subjected A. oris cells of ΔgspA and Δlcp strains to 10 μM of each molecule (3, 4 and 6) and studied pilus display with transmission electron microscopy (TEM), whereby A. oris cells were immobilized on nickel grids and stained with 1% uranyl acetate prior to viewing by an electron microscope.
as §1

[1] = test system: A. oris ΔgspA and ΔlcpA strains; experiment: Pilus display by transmission electron microscopy; format: cell-based, Actinomyces oris; conditions: 10 μM; for Pilus assembly at the cell pole (TEM): ΔgspA or ΔlcpA strain, versus untreated control; for Pili display (TEM): ΔgspA strain, Fig. 5A–D
Procedure: as §4
To observe cell morphology by negative staining, A. oris cells harvested after inhibitor treatment were washed once with PBS and suspended in 0.1 M NaCl. A drop of 7 µL of bacterial suspension was placed onto carbon-coated nickel grids and stained with 1% uranyl acetate. Samples were examined using a JEOL JEM1200.

SaSrtA = SaSrtA (Staphylococcus aureus, UniProt Q2FV99); experiment: FRET-based in vitro sortase activity assay, SaSrtA; format: biochemical
Sequence of SaSrtA (Q2FV99 whole entry): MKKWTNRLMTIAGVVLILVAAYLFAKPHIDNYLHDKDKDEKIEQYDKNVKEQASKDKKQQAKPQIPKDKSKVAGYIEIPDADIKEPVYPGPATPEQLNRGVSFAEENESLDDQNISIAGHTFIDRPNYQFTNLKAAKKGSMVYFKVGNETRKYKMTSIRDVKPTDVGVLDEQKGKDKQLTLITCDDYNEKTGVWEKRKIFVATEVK
Procedure: (§5) The ability of the hit molecules to inhibit sortase activity was measured in vitro using an established FRET-based assay[13] that measures the ability of each enzyme to cleave a fluorogenic peptide substrate; Abz-LAQTG-Dap(Dnp)-NH2 and Abz-LPETG-Dap(Dnp)-NH2, substrates for ^AoSrtA and ^SaSrtA, respectively. Each enzyme cleaves between the threonine and glycine bond in these peptides, leading to a measurable increase in fluorescence (see Methods). The IC50 value of each compound was determined for both the ^AoSrtA and ^SaSrtA enzymes.
(§6) IC50 values for the six hit molecules against the ^AoSrtA and ^SaSrtA enzymes were determined as previously described, with some modifications. Briefly, molecules 1–6 were serial diluted 2-fold (from 1.25 mM to 2.44 µM, 500 µM to 0.98 µM final assay concentration) into 25 µM ^AoSrtA or ^SaSrtA (final assay concentration 10 µM) in buffer A (20 mM HEPES pH 7, 5 mM CaCl2, 0.05% TWEEN, 30% DMSO). The final DMSO concentration was […] in the assay. Samples were incubated 1 hour at room temperature and aliquoted into a 384-well plate (EK-30892). Thirty microliters of FRET peptide (Peptide 2.0) in buffer B (20 mM HEPES pH 7, 5 mM CaCl2, 0.05% TWEEN), […] for ^SaSrtA or Abz-LAQTG-Dap(Dnp)-NH2 for ^AoSrtA was added and the plate was immediately placed into a Flexstation II plate reader (Molecular Devices) and fluorescence was recorded at 335/420 nm excitation/emission wavelengths after 5 seconds of plate shaking to mix the reaction components. Plate fluorescence was measured over the course of 30 minutes.

AoSrtA = AoSrtA (Actinomyces oris, UniProt A0A0X8K1J2); experiment: FRET-based in vitro sortase activity assay, AoSrtA; format: biochemical; conditions: for pIC50: IC50 (A. oris), AoSrtA 10 µM, Abz-LAQTG-Dap(Dnp)-NH2, 1 hour preincubation; for IC50: IC50 values, range over compounds, range for both AoSrtA and SaSrtA, in µM
Sequence of AoSrtA (A0A0X8K1J2 entry or part of it): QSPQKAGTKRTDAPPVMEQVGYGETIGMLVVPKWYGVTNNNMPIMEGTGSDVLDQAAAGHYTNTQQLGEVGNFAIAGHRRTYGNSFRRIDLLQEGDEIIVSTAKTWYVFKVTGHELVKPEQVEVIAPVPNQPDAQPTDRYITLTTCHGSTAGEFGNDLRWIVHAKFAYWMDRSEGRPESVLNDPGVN
Procedure: as §5, §6

Compound	FimA polymers / type 2 pilus production (immunoblot α-FimA) (A. oris ΔgspA)	MIC (ΔgspA/ΔsrtA) (A. oris ΔgspAΔsrtA)	MIC (A. oris MG-1)	GspA polymers (immunoblot α-GspA) (A. oris ΔlcpA)	GspA display / cell wall associated GspA (A. oris ΔlcpA)	Pilus assembly at the cell pole (TEM) [1]	Pili display (TEM) [1]	pIC50 (SaSrtA)	pIC50 (AoSrtA)	IC50 (AoSrtA)
Cc1nc(COc2ccc(F)cc2)sc1CC(=O)Nc1nc2c(s1)CC(C)CC2 (stereo not drawn) [Compound 6]	little effect on type 2 pilus production	8.4 µg/mL (≈ 19.5 µM)	2.1 µg/mL (≈ 4.87 µM)	no GspA polymers were observed	significantly diminishes GspA display	significant reduction of pilus assembly at the cell pole	only modestly effects pili display	3.90	3.86	73 to 170 µM
CCc1ccc2nc(N(Cc3cccnc3)C(=O)c3ccc([N+](=O)[O-])o3)sc2c1 [Compound 3]	decreased FimA polymers	>130 µg/mL	8.2 µg/mL (≈ 20.1 µM)	no GspA polymers were observed	decreased amounts of cell wall associated GspA	significant reduction of pilus assembly at the cell pole	completely absent	3.66	4.13	73 to 170 µM
COc1ccc2nc(N(Cc3ccccc3)C(=O)c3ccc([N+](=O)[O-])o3)sc2c1 [Compound 4]	decreased FimA polymers	>130 µg/mL	16.4 µg/mL (≈ 40.1 µM)	no GspA polymers were observed	decreased amounts of cell wall associated GspA	significant reduction of pilus assembly at the cell pole	diminished	3.31	3.77	73 to 170 µM
